Reference: patent US11752156B2, “Compositions and methods for treating hyperproliferative skin disorders” (Athenex HK Innovative Limited, priority 2018, dated 2023)
Several values for one entry are separate records, joined by “and”; a condition that tells them apart may be missing. Equal values may be shown once. Read-outs that look alike come from different tables or passages of the source.

Experiments:
[1] = test system: human keratinocytes in culture (cell line CCD-1106 KERTr); assay: cell viability / cell growth of human keratinocytes in culture, KX01, calcipotriol and fixed-ratio combinations; format: cell-based; design: cell growth (cell viability): unit not given here
Source text: Typical data from studies of the effects of compound KX01 provided in combination with calcipotriol on growth of human keratinocytes in culture (cell line CCD-1106 KERTr) are shown in FIGS. 1 to 3 and Tables 1 to 6. FIG. 1 and Tables 1 and 2 show the degree of growth inhibition found in a typical study performed with KX01 and calcipotriol at a 1:5 ratio.

[2] = test system: human keratinocyte cell line; assay: inhibition of human keratinocyte growth, individual dose response, 72 hours, MTT assay; format: cell-based; settings: 72 hour exposure
Experimental: FIG. 4: Inhibition of human keratinocyte growth versus KX01 concentration (treatment duration: 72 hours; cell growth measured using the MTT assay). […] FIG. 5: Inhibition of human keratinocyte growth versus calcipotriol concentration (treatment duration: 72 hours; cell growth measured using the MTT assay). […] A human keratinocyte cell line was used in these studies.

CCD-1106 KERTr cells = assay: FITC annexin V / PI apoptosis assay by flow cytometry, 24 hours; format: cell-based, human; settings: 24 hours
Experimental: In addition to growth inhibition, Inventors also investigated the effect of KX01 on apoptosis in keratinocytes. CCD-1106 KERTr cells (1×10^6) were seeded in 60 mm dishes and treated with test compounds at varying concentrations (e.g. KX01: 20 to 500 nM; calcipotriol 50 to 1000 nM) for 24 hours. Cell apoptosis was assessed by using a FITC annexin V apoptosis detection kit (BD Biosciences™) according to manufacturer's instruction. Briefly, cells were collected in 1× binding buffer and incubated with fluorescein isothiocyanate (FITC)-conjugated annexin V and propidium iodide (PI) for 15 minutes at room temperature in the dark, followed by flow cytometry analysis using a LSRFortessa™ flow cytometer (BD Biosciences™).

[3] = test system: CCD 1106 KERTr human keratinocyte cell line; assay: MTT cell proliferation assay, 72 hours, dark or blue light, keratinocytes; format: cell-based; settings: for inhibition at 0.01 µM / inhibition at 0.02 µM / inhibition at 0.04 µM / inhibition at 0.08 µM: Homo sapiens, read-out: growth inhibition relative to untreated control
Experimental: The effects of combined treatment with KX01, a vitamin D derivative, and/or blue/UV light exposure were characterized using a cell proliferation assay. Cell proliferation was assessed by using an MTT assay. Cells were seeded in 96-well plate (3,000-5,000 cells per well) and treated with test compounds at varying concentrations (e.g. KX01: 5 to 80 nM; calcipotriol 5 to 1,280 nM) for 72 hours, either in the dark or exposed to blue light irradiation (for 2, 4, or 6 hours). To each well, 10 μl of 3-(4,5-dimethylthiazol-2-yl)-2,5-diphenyltetrazolium bromide (MTT) (RPI Corporation™) solution (5 mg/ml in PBS) was added and incubated at 37° C. for 3 hours. Next, 100 μl of 20% SDS was added to each well. After overnight incubation at 37° C., the absorbance in each well was measured at 570 nm in a microplate reader (Molecular Devices™). The cell growth curve and GI50s were calculate using GraphPad Prism™ 5 software. Tables 13 and 14 show the results of cell growth inhibition studies (expressed as a percentage relative to control cell growth) for treatment with either KX01 or calcipotriol in combination with exposure to blue light. […] The percentage of growth inhibition relative to untreated control is shown. […] The percentage of growth inhibition relative to untreated control is shown. Tables 15 to 18 show the effects of combined treatment with KX01, calcipotriol, and exposure to blue light at 0 hours, 2 hours, 4 hours, and 6 hours of light exposure (respectively). Values are expressed as the percentage of growth inhibition relative to cells grown under control conditions (0 hours blue light, [KX01]=0, [calcipotriol]=0). […] Results are shown below in Tables 27 to Table 30, which show results from 0, 2, 4, and 6 hours of blue light exposure (respectively). Values are expressed as the percentage of growth inhibition relative to cells grown under control conditions (0 hours blue light, [KX01]=0, [calcipotriol]=0).

For O=C(Cc1ccc(-c2ccc(OCCN3CCOCC3)cc2)cn1)NCc1ccccc1 [KX01, N-benzyl-2-(5-{4-[2-(morpholine-4-yl)ethoxy]phenyl}pyridine-2-yl)acetamide], the GI50 [1] was 38 nM and 36 nM, the GI50 ([1]; Homo sapiens, CCD-1106) was 32 nM and the viability at 0.000333 µM ([1]; Homo sapiens, CCD-1106, concentration 0.333 nM) was 100%. For the same compound, the viability at 0.001 µM ([1]; Homo sapiens, CCD-1106, concentration 1 nM) was 97%, the viability at 0.003 µM ([1]; Homo sapiens, CCD-1106, concentration 3 nM) was 90.9% and the viability at 0.009 µM ([1]; Homo sapiens, CCD-1106, concentration 9 nM) was 94.7%. It also gave a viability at 0.027 µM ([1]; Homo sapiens, CCD-1106, concentration 27 nM) of 67.1%, a viability at 0.243 µM ([1]; Homo sapiens, CCD-1106, concentration 243 nM) of 2.07% and a viability at 0.729 µM ([1]; Homo sapiens, CCD-1106, concentration 729 nM) of 6.66%. The viability at 2.187 µM ([1]; Homo sapiens, CCD-1106, concentration 2187 nM) was 8.91%, the “cell growth (cell viability)” value ([1]; concentration 0.333 nM, 0.000333 µM) was 102.3 and 98.0 and the “cell growth (cell viability)” value ([1]; concentration 1 nM, 0.001 µM) was 99.9 and 101.3. The “cell growth (cell viability)” value ([1]; concentration 3 nM, 0.003 µM) was 100.0 and 96.6, the “cell growth (cell viability)” value ([1]; concentration 9 nM, 0.009 µM) was 100.2 and 98.2 and the “cell growth (cell viability)” value ([1]; concentration 27 nM, 0.027 µM) was 79.8 and 80.1. The “cell growth (cell viability)” value ([1]; concentration 729 nM, 0.729 µM) was 9.9 and 7.3, the “cell growth (cell viability)” value ([1]; concentration 2187 nM, 2.187 µM) was 14.9 and 9.5 and the IC50 [2] was 41.9 nM. For the same compound, the late apoptic cells (CCD-1106 KERTr cells; KX01 20 nM) was 2.09%, the late apoptic cells (CCD-1106 KERTr cells; KX01 40 nM) was 3.50% and the late apoptic cells (CCD-1106 KERTr cells; KX01 100 nM) was 6.33%. The late apoptic cells (CCD-1106 KERTr cells; KX01 500 nM) was 4.34%, the inhibition at 0.01 µM ([3]; CCD-1106, 2 h, KX01 10 nM, blue light 2 h) was 27% and the inhibition at 0.02 µM ([3]; CCD-1106, 2 h, KX01 20 nM, blue light 2 h) was 63%. It also gave an inhibition at 0.04 µM ([3]; CCD-1106, 2 h, KX01 40 nM, blue light 2 h) of 92%, an inhibition at 0.01 µM ([3]; CCD-1106, 4 h, KX01 10 nM, blue light 4 h) of 47% and an inhibition at 0.02 µM ([3]; CCD-1106, 4 h, KX01 20 nM, blue light 4 h) of 64%. For the same compound, the inhibition at 0.04 µM ([3]; CCD-1106, 4 h, KX01 40 nM, blue light 4 h) was 87%, the inhibition at 0.08 µM ([3]; CCD-1106, 4 h, KX01 80 nM, blue light 4 h) was 92% and the inhibition at 0.01 µM ([3]; CCD-1106, 6 h, KX01 10 nM, blue light 6 h) was 56%. It also gave an inhibition at 0.02 µM ([3]; CCD-1106, 6 h, KX01 20 nM, blue light 6 h) of 70%, an inhibition at 0.04 µM ([3]; CCD-1106, 6 h, KX01 40 nM, blue light 6 h) of 88% and an inhibition at 0.08 µM ([3]; CCD-1106, 6 h, KX01 80 nM, blue light 6 h) of 87%. For the same compound, the “growth inhibition relative to untreated control” value ([3]; KX01 10 nM, blue light 0 h) was 4% and 9% and 6%, the “growth inhibition relative to untreated control” value ([3]; KX01 10 nM, blue light 2 h) was 32% and 34% and the “growth inhibition relative to untreated control” value ([3]; KX01 10 nM, blue light 4 h) was 50%. The “growth inhibition relative to untreated control” value ([3]; KX01 10 nM, blue light 6 h) was 62% and 57%, the “growth inhibition relative to untreated control” value ([3]; KX01 20 nM, blue light 0 h) was 49% and the “growth inhibition relative to untreated control” value ([3]; KX01 20 nM, blue light 2 h) was 74% and 68%. For the same compound, the “growth inhibition relative to untreated control” value ([3]; KX01 20 nM, blue light 4 h) was 69% and 68%, the “growth inhibition relative to untreated control” value ([3]; KX01 20 nM, blue light 6 h) was 67% and 73% and the “growth inhibition relative to untreated control” value ([3]; KX01 40 nM, blue light 0 h) was 90% and 45%. For the same compound, the “growth inhibition relative to untreated control” value ([3]; KX01 40 nM, blue light 2 h) was 98% and 91%, the “growth inhibition relative to untreated control” value ([3]; KX01 40 nM, blue light 4 h) was 86% and the “growth inhibition relative to untreated control” value ([3]; KX01 40 nM, blue light 6 h) was 84%. The “growth inhibition relative to untreated control” value ([3]; KX01 80 nM, blue light 0 h) was 96% and 48% and 95%, the “growth inhibition relative to untreated control” value ([3]; KX01 80 nM, blue light 4 h) was 93% and 90% and the “growth inhibition relative to untreated control” value ([3]; KX01 80 nM, blue light 6 h) was 83%. For the same compound, the “effect of blue light exposure with the drug on cell growth inhibition” value ([3]; for example 6 hours of blue light with 10 nm KX01) was “Synergistic effects”.
